For series [1], the system named is collagen-induced arthritis model. As to the kind of experiment: Arthritis Study B: collagen-induced arthritis, clinical effects (Example 11). It is filed as in vivo, DBA/1J mice. The method, then:
The effect of inhibition of Factor XI and its role in fibrin accumulation in the joints leading to joint inflammation and rheumatoid arthritis was evaluated in a murine collagen-induced arthritis (CIA) model. […] Arthritis induced in mice administered collagen can be visually assessed and clinically scored as described by Marty et al. (J Clin Invest, 107:631-640, 2001) where 1 point is given for each swollen digit except the thumb (maximum, 4), 1 point is given for the tarsal or carpal joint, and 1 point is given for the metatarsal or metacarpal joint with a maximum score of […]. Each paw was graded individually, the cumulative clinical arthritic score per mouse reaching a maximum of 22 points
In a group of 20 DBA/1J mice, 20 mg/kg of ISIS 404071 were injected subcutaneously twice a week for ten weeks. In a second group of 20 DBA/1J mice, 20 mg/kg of ISIS 404057 were injected subcutaneously twice a week for ten weeks. In a third control group of 20 DBA/1J mice, 20 mg/kg of ISIS 421208 were injected subcutaneously twice a week for ten weeks. Two control groups of 20 mice each were injected with PBS twice a week for ten weeks.
Two and a half weeks after the first oligonucleotide dose, type II bovine collagen in complete Freund's adjuvant was injected subcutaneously at the base of the tail in all the experimental groups and one PBS control group. A booster injection containing 100 μg collagen type II in incomplete Freund's adjuvant was injected subcutaneously at the base of the tail at a different injection site on day 21 after the first collagen injection in these groups.
Mice in all groups were examined daily after day 30 after the first collagen injection for the visual appearance of arthritis in peripheral joints. The results in Table 22 are expressed as percent change compared to the PBS control except for the liver and spleen weight.

Series [2] concerns DSS-induced colitis model. Description: Colitis Study A: DSS-induced colitis, body weight and colon length (Example 12). It is filed as in vivo, Swiss Webb mice. Particulars: for colon length (in words): FIG. 7C. The procedure: The effect of antisense oligonucleotide inhibition of Factor XI and its role in ameliorating colitis was evaluated in a dextran sulfate sodium (DSS)-induced colitis model. Administration of DSS to animals is a well known method to induce […] and has been previously described by Okayasu et al. (Gastroenterology, 1990, 98:694-702), Cooper et al. (Lab Invest, 1993, 69:238-249) and Dieleman et al. (Clin Exp Immunol, 1998, 114:385-391).
In groups of 8 Swiss Webb mice, 20 mg/kg of ISIS 404071 or ISIS 403102 were injected subcutaneously twice a week for 3 weeks. Two control groups of 8 mice each were injected with PBS twice a week for 3 weeks. After the oligonucleotide treatments, 4% DSS in water was administered ad libitum for 6 days to the experimental groups and one PBS control group.
Mice in all groups were weighed at day 0. Mice were sacrificed at the end of the study on day 7 after DSS was administered and their body weights and colon lengths were measured. Results are presented in Table 24 (expressed as a percentage of the PBS control) and FIG. 7.
Colon length was assessed in the DSS-induced colitis mice.

Series [3] has as its system DSS-induced colitis model. Description: Colitis Study C: stool softness/diarrhea. The class given is in vivo, mice. Particulars: after seven days. The procedure: A third study on colitis using Factor XI oligonucleotide (ISIS 404071, SEQ ID NO: 11) was conducted. The study was performed essentially as described earlier in this example. A stool softness/diarrhea study was conducted.

The next series relates to bradykinin. As to the kind of experiment: Colitis Study D: bradykinin levels in colon. The class given is in vivo, Swiss Webb mice. Particulars: for Bradykinin levels in colon: DSS-treated mice. The procedure: In a first group of 8 Swiss Webb mice, 10 mg/kg of ISIS 404071 was injected subcutaneously twice a week for 3 weeks. In a second group of 8 Swiss Webb mice, 20 mg/kg of ISIS 404057 was subcutaneously injected twice a week for 3 weeks. In a third control group of 8 Swiss Webb mice, 40 mg/kg of ISISI 404057 was injected subcutaneously twice a week for 3 weeks. Two control groups of 8 mice each were injected with PBS twice a week for 3 weeks. After the oligonucleotide treatment, 4% DSS in water was administered ad libitum for 7 days to all the experimental groups and one PBS control group.
The effect of antisense inhibition of Factor XI on kinin levels in the colon was evaluated (Phoenix Pharmaceuticals, Burlingame, Calif.) and the results are presented in Table 32.

Series [4] relates to thrombin-antithrombin (TAT) complexes. As to the kind of experiment: Colitis Study E: TAT levels. The class given is in vivo, Swiss Webb mice. To be noted: for TAT levels: colon, DSS-treated mice, day 7, 40 mpk. The procedure: Two groups 8 Swiss Webb mice were dosed with 40 mg/kg of ISIS 404071 injected subcutaneously twice a week for 3 weeks. Two control groups of 8 Swiss Webb mice were dosed with PBS subcutaneously twice a week for 3 weeks. Both the ASO treated groups and one of the control groups were then given 4% DSS in distilled water for 7 days ad libitum. One of the ASO and DSS treated groups was also given intravenous injections of 20 μg of recombinant human Factor XI protein (Haematologic Technologies Inc.) for 7 consecutive days, starting the day before DSS treatment. Mice were sacrificed at the end of the study on day 7 after DSS was administered.
Mice with dextran sodium sulfate (DSS)-induced colitis have elevated level of thrombin-antithrombin (TAT) complexes in blood (Anthoni, C. et al., J. Exp. Med. 204: 1595-1601, 2007) and is also observed in patients with ulcerative colitis (Kume, K. et al., Intern Med. 2007. 46: 1323-9). The effect of antisense inhibition of Factor XI on TAT levels in the […] was evaluated (Siemens Healthcare Diagnostics, Deerfield, Ill.) at the end of the study on day 7 after DSS was administered and the results are presented in Table 38.

For series [5], the system named is DSS-induced colitis model. Description: Colitis Study F: body weight, stool scores, colon length and weight. It is filed as in vivo, Swiss Webb mice. Particulars: DSS-treated mice, 50 mg/kg, Day 8.
Where [6] appears, read: DBA/1J mice, 20 mg/kg s.c. twice a week for ten weeks, end of study.
[7] abbreviates: DSS-induced colitis, day 7, 20 mg/kg s.c. twice a week for 3 weeks, expressed as a percentage of the PBS control.

In the oligonucleotide strings, read from the 5' end, every base follows the letter of its sugar. An asterisk marks phosphorothioate; unmarked linkages are phosphodiester. Other units and linkages are bracketed, terminal groups are in braces. A string of capitals states the bases alone. e = 2'-O-(2-methoxyethyl) (MOE); [5mC] = 5-methylcytosine; d = 2'-deoxy (DNA)

Turning to “TGGTAATCCACTTTCAGAGG (eT*eG*eG*eT*eA*dA*dT*d[5mC]*d[5mC]*dA*d[5mC]*dT*dT*dT*d[5mC]*eA*eG*eA*eG*eG) [ISIS 404071, 5-10-5 MOE gapmer targeting murine Factor XI, target start site 869]”, the “amount of arthritis assessed (in words)” value in series [1] (Arthritis Study B, 20 mg/kg twice a week for ten weeks, compared to untreated mice) is reported as “significantly decreased the amount of arthritis”. Besides, in series [1] (setting [6]), the “% of CIA” value turned out to be 64%, the “% of paws affected” value was found to be 20%, the “Average no. of paws affected” value is recorded as 0.82 and the “Clinical severity of CIA” value was determined as 4.6. Moreover, the “body weight (in words)” value in series [2] (Colitis Study A, FIG. 7A/7B) is listed as “did not have any significant change in body weight”. In addition, the “colon length (in words)” value in series [2] (Colitis Study A, listed as Factor XI ASO) is “had no significant change in colon length”. In addition, the “colon length (in words)” value in series [2] (Colitis Study A, listed as Factor XI oligonucleotide) is given as “decreased the amount of colon shortening”. For the same sequence, in series [2] (setting [7]), the Body weight change is −2% and the Colon length change is recorded as −13%. The “stool softness/diarrhea (in words)” value in series [3] was “normal to soft stool but no diarrhea”. Besides, the “bradykinin levels (in words)” value in the series with bradykinin (Colitis Study D) was “decreased”. For the same sequence, in the series with bradykinin (10 mpk), the “Bradykinin levels in colon” value worked out at 0.03 ng/mg protein. Moreover, in the series on bradykinin (20 mpk), the “Bradykinin levels in colon” value stood at 0.00 ng/mg protein. Also, in the series on bradykinin (40 mpk), the “Bradykinin levels in colon” value was 0.02 ng/mg protein. Further, in series [4] (Colitis Study E, day 7), the “TAT levels (in words)” value is reported as “decreased”. Also, the TAT levels in series [4] (no human recombinant FXI) worked out at 0.1 ng/mg protein. Also, the TAT levels in series [4] (plus human recombinant FXI 20 ug/mouse/day) was 0.8 ng/mg protein. This sequence had a Stool score in series [5] of 2.

The values above are taken from US20120083522A1, “MODULATION OF INFLAMMATORY RESPONSES BY FACTOR XI” (Isis Pharmaceuitcals, inc., priority 2009, published 2012).
